This experiment relates to Nucleic Acid. In words: Compound was tested for binding affinity against CT DNA. Type of experiment: nucleic-acid assay. To be noted: Bos taurus.

For `COc1cc2c(CCCN)c3cc(OC)c(OC)cc3c(CCCN)c2cc1OC`, the Binding affinity amounted to 40000 M⁻¹.

Regarding `NCc1c2ccccc2cc2ccccc12`, the Binding affinity stood at 10000 M⁻¹.

(Values after ChEMBL document CHEMBL1130648, “The synthesis of a new type of anthracene DNA intercalator” (Bioorg Med Chem Lett, 1998).)
